Test results: paper PMC13017400, “ENPP1 inhibition as a therapeutic approach for later-onset hypophosphatasia” (Journal of Bone and Mineral Research, 2025)

Molecular target: T1, ENPP1 (ectonucleotide pyrophosphatase/phosphodiesterase 1) (Mus musculus, UniProt P06802)
T1 sequence (P06802 1-906): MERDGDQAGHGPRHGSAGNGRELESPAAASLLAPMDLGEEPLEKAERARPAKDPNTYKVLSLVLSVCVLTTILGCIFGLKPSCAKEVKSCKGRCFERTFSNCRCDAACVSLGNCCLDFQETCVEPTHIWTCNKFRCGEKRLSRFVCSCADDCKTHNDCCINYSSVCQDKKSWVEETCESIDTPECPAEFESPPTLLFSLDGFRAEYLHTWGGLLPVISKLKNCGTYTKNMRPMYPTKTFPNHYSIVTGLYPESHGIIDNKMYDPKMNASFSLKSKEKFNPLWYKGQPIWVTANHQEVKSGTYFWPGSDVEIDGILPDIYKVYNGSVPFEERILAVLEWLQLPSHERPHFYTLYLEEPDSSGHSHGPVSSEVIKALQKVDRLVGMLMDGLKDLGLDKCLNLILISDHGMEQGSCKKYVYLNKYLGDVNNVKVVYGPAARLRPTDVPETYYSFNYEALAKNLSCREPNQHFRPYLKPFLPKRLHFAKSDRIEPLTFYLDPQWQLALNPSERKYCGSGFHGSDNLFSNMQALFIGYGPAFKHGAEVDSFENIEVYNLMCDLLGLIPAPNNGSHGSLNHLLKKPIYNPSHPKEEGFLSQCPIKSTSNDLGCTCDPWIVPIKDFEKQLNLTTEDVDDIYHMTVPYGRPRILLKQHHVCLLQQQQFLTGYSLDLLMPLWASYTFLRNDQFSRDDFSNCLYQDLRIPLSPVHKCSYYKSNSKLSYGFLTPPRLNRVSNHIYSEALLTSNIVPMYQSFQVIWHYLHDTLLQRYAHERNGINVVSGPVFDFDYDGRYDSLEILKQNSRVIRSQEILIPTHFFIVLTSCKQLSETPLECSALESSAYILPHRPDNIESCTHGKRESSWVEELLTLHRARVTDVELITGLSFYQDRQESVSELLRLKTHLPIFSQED
Assay: Transcreener AMP/GMP TR-FRET enzymatic assay, […] mouse ENPP1 protein, […] ATP
Assay type: biochemical

IC50: 6.3 nM
Substance: REV102
